Measured values as given in PMC5456383 (PLoS ONE, 2017).
Like-named read-outs stand apart in the source and are kept apart here.

Legend:
[1] = parameters: Time at which steady state was achieved: dose or concentration left out as unconfirmed; settings: cited from earlier work
[2] = Tolerability of IV caspofungin in healthy cats (physical examination, blood count, biochemistry)
Protocol: (§1) Cats were housed individually and acclimatized to the clinical environment for three days prior to the start of the study with free access to food and water.
(§2) For drug administration, a peripheral catheter (22G IV radiopaque catheter; OPTIVA®, Smiths Medical International Ltd, Lanchashire, UK) was placed into a cephalic vein.
(§3) Blood samples were immediately centrifuged (12, 000 g for 5 min) and plasma was stored at -80°C until assay.

[3] = Population pharmacokinetic modeling of caspofungin plasma concentrations in healthy cats (HPLC-MS/MS, NONMEM)
Protocol: as §1, §2, §3
Pharmacokinetic model development employed nonlinear mixed-effects modeling using NONMEM version 7.3 [17], with the Wings for NONMEM 7.3interface (http://wfn.sourceforge.net) and IFort compiler. […] Data manipulation and post-run processing of NONMEM output was conducted using the R data analysis language (Version 3.2.2) and the packages ggplot2, GGally, foreign, tidyr, Hmisc, gdata, doBy, plyr, grid, stringr with associated dependencies [17–28].
The base pharmacokinetic model was developed in a step-wise manner. Pharmacokinetic models were coded using the built-in ADVAN subroutines of NONMEM. Linear kinetic models with 1 and 2 compartments were evaluated. The First Order Conditional Estimation (FOCE) method was used to fit models. The base model was selected on the basis of mechanistic plausibility, visual inspection of goodness-of-fit diagnostic plots, the precision of parameter estimates (se% <30% for fixed, <50% for random effects parameters), and the lowest value of the Akaike’s information criterion (AIC; Eq 1) in accordance with the number of parameters and the final NONMEM derived objective function value (OBJ). The base model was also required to pass the covariance step.
Unless stated otherwise, population parameter variability (PPV) was represented using an exponential error model (Eq 2): Pj=TVP*e^ηj (2) where Pj is the individual value for the parameter in the j^th individual, TVP is the typical population value of P and ηj is an independent random variable with a mean of zero and variance ω^2. PPV was systematically examined on each fixed-effect parameter. Models with and without covariance for P were investigated using the OMEGA BLOCK functionality of NONMEM.
The influence of the additive component of the error was also examined by a comparison with a proportional only error model.

[4] = caspofungin-treated patients with candidemia; cited from earlier work
[5] = tested on: invasive pulmonary aspergillosis; settings: cited from earlier work
[6] = tested on: clinical isolates of A. felis from cats with invasive aspergillosis; settings: cited from earlier work
Text: Echinocandins have concentration-dependent activity against Aspergillus spp.

[7] = concentration independent, cited from earlier work
Text: The relationship between antifungal in vivo susceptibility, dosages, drug concentrations within various body compartments and toxicological effects are not completely understood. […] For example, in sino-orbital aspergillosis systemic therapy may not be sufficient to penetrate the site of infection and reduce fungal burden. In addition, our work here is based upon total plasma concentra ...

[8] = cats, 1 mg/kg IV infusion over 1 h, two-compartment model, scaled to 4 kg

SMILES: CC[C@H](C)C[C@H](C)CCCCCCCCC(=O)N[C@H]1C[C@@H](O)[C@@H](NCCN)NC(=O)[C@@H]2[C@@H](O)CCN2C(=O)[C@H]([C@H](O)CCN)NC(=O)[C@H]([C@H](O)[C@@H](O)c2ccc(O)cc2)NC(=O)[C@@H]2C[C@@H](O)CN2C(=O)[C@H]([C@@H](C)O)NC1=O [caspofungin, caspofungin acetate]
- Clearance in the typical 70 kg human [1]: 10 mL/min
- Trough concentration at steady state ([1]; humans given 70 mg/kg of caspofungin daily): 2.57 ± 0.34 µg/mL
- Time at which steady state was achieved ([1]; humans given of caspofungin daily): during the third week of administration
- Liver enzyme elevations ([2]; healthy cats, 1 mg/kg IV daily): did not occur in any cats
- Tolerability ([2]; healthy cats, 1 mg/kg IV over 1 h, single and 7 daily doses): well tolerated
- Changes on complete blood counts and multiple biochemical analyses ([2]; healthy cats, after consecutive daily dosing 1 mg/kg IV): no changes
- Body temperature during minor transient hyperthermia ([2]; one cat, during the first infusion only, reference range 37.5–39.1°C): 39.6–39.8 °C
- Diarrhoea ([2]; one cat, resolved within 24 h of the final infusion): mild transient diarrhoea
- clearance ([3]; both, domestic shorthair, plasma, iv, 1 mg/kg): 0.292 mL/min
- Q (mL/h) * (WT/4)^0.75, inter-compartmental clearance, population estimate [3, 8]: 150 mL/h
- V1 (mL) * (WT/4), central volume of distribution, population estimate [3, 8]: 214 mL
- V2 (mL) * (WT/4), peripheral volume of distribution, population estimate [3, 8]: 143 mL
- Time at which steady state was achieved ([3]; cats, daily IV dosing): approximately 72 h
- Frequency of chills [4]: 5.3%
- Frequency of fever [4]: 7.5%
- Frequency of liver enzyme elevations (ALT, AST or ALP) [4]: 13.9%
- Frequency of nausea or vomiting [4]: 5.3%
- Frequency of phlebitis [4]: 3.5%
- Fungal burden versus mice dosed with 1 mg/kg q6 h ([5]; mice dosed with 1 mg/kg q24 h or 2 mg/kg q48 h): significantly lower fungal burdens
- Effect on fungal growth at higher doses ([5]; mice, 4 mg/kg, Cmax: MEC >20): paradoxical effect on fungal growth resulting in increased burdens
- MEC ([6]; clinical isolates of A. felis from cats, all except one isolate): less than 0.06 μg/mL
- MEC ([6]; one clinical isolate of A. felis): 2 µg/mL
- Unbound fraction in serum ([7]; human serum): 3–4%
- Unbound fraction in serum ([7]; mouse serum): 3–4%
